Data set [1] concerns K7M2wt tumors. The data set can be described thus: Collagen staining with Picrosirius red. Particulars: 10 mg/kg ketotifen. The data set is classed as in vivo, mouse. The protocol: (§1) As tissue stiffness is caused in part by the degree of collagen expression by cancer associated fibroblasts (CAFs) and crosslinking, the intratumoral collagen levels were evaluated by histological staining using Picrosirius red.
(§2) Briefly, tumors were removed from four mice, washed twice in 1×PBS for 10 min, and incubated with 4% PFA overnight at 4° C. The fixative was aspirated, and samples were washed twice in 1×PBS for 10 min. Tissue samples were dehydrated in successive ethanol steps and xylene followed by paraffin embedding. Serial sections ([…]) of paraffin-embedded tissues were produced using the microtome (Accu-Cut SRM 200 Rotary Microtome, SAKURA), flattened out into water, and allowed to dry overnight at 37° C. Sections were then deparaffinized and rehydrated as routinely processed for histology. Following deparaffinization and rehydration, tissue sections were submerged in Picrosirius red stain for 1 hour at room temperature. Next, tissue sections were rinsed in two changes of acetic acid, followed by two changes of absolute ethanol and finally, mounted with DPX mountant for histology (Sigma). Collagen fibers were stained in red while the remaining tissue was pale yellow.

Data set [2] concerns MCA205 tumors. In words: Collagen staining with Picrosirius red. The data set is classed as in vivo, mouse. As to conditions: 10 mg/kg ketotifen. The method, then: as §1, §2
Data set [3] can be described thus: Mouse body, thymus and spleen weight at conclusion of study. The data set is classed as in vivo. Particulars: highest dose (of 1, 5, 10, 25 mg/kg), i.p. once a day for 8 days. The method, then: Each treatment group of 4-7 mice received subtherapeutic doses of ketotifen (1, 5, 10 and 25 mg/kg) for a period of 8 days. Ketotifen fumarate salt was dissolved in sterilized normal saline (0.9% NaCl in ddH2O, w/v). Ketotifen 1 mg/kg, 5 mg/kg, 10 mg/kg, 25 mg/kg or equal volume of diluent (control group) was administered by intraperitoneal injection (i.p.) once a day for 8 days. Ketotifen treatment for MCA205 and K7M2wt tumor models started when the average tumor volume reached 60 mm^3 and 150 mm^3, respectively, and completed at 600 mm^3. At study endpoint, primary tumors were surgically excised and stored in 1×PBS at −80° C. until further processing. Planar dimensions (x, y) of tumor were monitored every 2-3 days using a digital caliper and tumor volume was estimated from the volume of an ellipsoid and assuming that the third dimension, z, is equal to sqrt(x y).
Following treatment, tumor growth (tumor volume and mass, see, FIGS. 2A and 2C for MCA205 tumors, and FIGS. 2B and 2D for K7M2wt tumors) was evaluated in the mice of each sarcoma group.

A further data set concerns CD117 protein. In words: Western blot against CD117 protein (mast cell number) in tumors. The data set is classed as in vivo, mouse. As to conditions: subtherapeutic doses of ketotifen. Background: In western blotting, separated proteins are transferred to a membrane and probed.
Data set [4] relates to K7M2wt tumors. The data set can be described thus: Tumor growth (volume, mass) under daily ketotifen, osteosarcoma model. The data set is classed as in vivo, mouse. As to conditions: daily ketotifen i.p. for 8 days. The method, then: Two mouse models of distinct sarcoma subtypes, fibrosarcoma (MCA205 cells) and osteosarcoma (K7M2wt cells), were used in this study.
MCA205, a mouse fibrosarcoma cell line (SCC173, Millipore), was cultured in RPMI-1640 expansion medium containing 2 mM L-glutamine, 1 mM sodium pyruvate, 10% fetal bovine serum, 1× non-essential amino acids (TMS-001-C, Sigma), 1% antibiotics (A5955, Sigma), and 1×β-mercaptoethanol. K7M2wt, a mouse osteosarcoma cell line (CRL2836™, ATCC®), was cultured in DMEM expansion medium supplemented with 10% FBS and 1% antibiotics. All cells were maintained at 37° C./5% CO2.
A fibrosarcoma syngeneic tumor model was generated by subcutaneous implantation of 2.5×10^5 MCA205 cells in 50 μL of serum-free medium into the flank of 6-week old C57BL/6 female mice. A osteosarcoma syngeneic tumor model was generated by implanting K7M2wt tumor chunks into the fat pad of 6-week old BALB/c female mice. […]
Each treatment group of 4-7 mice received subtherapeutic doses of ketotifen (1, 5, 10 and 25 mg/kg) for a period of 8 days. […] Planar dimensions (x, y) of tumor were monitored every 2-3 days using a digital caliper and tumor volume was estimated from the volume of an ellipsoid and assuming that the third dimension, z, is equal to sqrt(x y).

The subject of another data set is tumors. In words: Interstitial fluid pressure, wick-in-needle technique. The data set is classed as in vivo, mouse. The protocol: Interstitial fluid pressure (IFP) was measured in vivo using the “wick-in-needle” technique after mice were anesthetized with i.p. injection of Avertin and prior to tumor excision. Additional information regarding the wick-in-needle technique is described in Dong et al., Involvement of mast cell chymase in burn wound healing in hamsters 2013; 5:643-7 and Shankaran et al. IFNγ and lymphocytes prevent primary tumour development and shape tumour immunogenicity 2001; 410:1107-11, the contents of which are incorporated herein by reference in their entirety.

For data set [5], the system named is K7M2wt tumors. The data set can be described thus: Vascular and functional perfusion, contrast-enhanced ultrasound. Type of data set: in vivo, mouse. As to conditions: 10 mg/kg ketotifen, day 3 and day 7. The method, then: (§3) Vascular perfusion and functional perfusion were measured simultaneously during the course of ketotifen treatment, at day 3 and day 7, using contrast-enhanced ultrasound in mice bearing MCA205 and mice bearing K7M2wt tumors. Tumor perfusion was assessed after bolus injection of 8 μl SonoVue/Lumason contrast agent (Bracco Diagnostics, Geneva, Switzerland). SonoVue contains sulphur hexafluoride microbubbles encapsulated with a phosphoilipid shell and having a mean diameter of 2.5 μm. It is delivered as a retro-orbital injection since tail vein microbubble injections tend to have high variability. Prior to each ultrasound application, mice were anesthetized by i.p. injection of Avertin (200 mg/kg).

Data set [6] concerns MCA205 tumors. Described as above. Type of data set: in vivo, mouse. As to conditions: 10 mg/kg ketotifen, day 3 and day 7. The protocol: as §3
The next data set deals with MCA205 cells. In words: Re-challenge of long-term survivors with MCA205 cells. The data set is classed as in vivo, mouse. Particulars: re-challenge with 2.5×10^5 MCA205 cells s.c., 80 days after resection of primary tumors. An excerpt: Since doxorubicin has potential to establish favorable immunogenic conditions within the TME, which could affect the efficacy of immunotherapy, it was investigated if this immune response is preserved against rechallenge of long-term survivors with the same cell line. Mice were considered long-term survivors if no tumor was detected 80 days after surgical resection of MCA205 primary tumors. Five long-term survivors from each treatment group were further re-challenged with 2.5×10^5 MCA205 cells injected subcutaneously into the flank region. Cells were prepared in 50 μl of PBS. Naïve mice were implanted in parallel as controls.

Each structure is given as a SMILES string. Entries after “also recorded” stand apart in the source; their conditions may differ.

Take `CN1CCC(=C2c3ccccc3CC(=O)c3sccc32)CC1` [ketotifen]: the “collagen deposition (Picrosirius red)” value in the data set with K7M2wt tumors [1] and in the data set on MCA205 tumors [2] was “significant reduction” each time. Further, in [3], the splenomegaly entry was “caused splenomegaly”. The “mast cell (MC) number as determined by CD117 protein levels” value with CD117 protein is listed as “remain unaffected”. Moreover, the “antitumor effect (tumor volume and mass)” value in the data set with K7M2wt tumors [4] is “No subtherepautic dose of ketotifen exhibited an antitumor effect”. Also, the “interstitial fluid pressure (IFP)” value with tumors (10 mg/kg dose compared with the other doses) is on record as “greatest effect”; with tumors (all doses of ketotifen, daily for 7 days) it was “reduces; also recorded: reduction in IFP levels”. For the same molecule, the “vascular and functional perfusion” value with K7M2wt tumors [5] and in the data set on MCA205 tumors [6] was “significant increase; also recorded: highly effective at increasing vessel perfusion” each time. Moreover, the “tumor development after re-challenge (mice out of five long-term survivors per group)” value in the data set with MCA205 cells is given as “developed progressively growing tumors”.

Values taken from patent publication US20250041286A1, “CANCER TREATMENT USING KETOTIFEN IN COMBINATION WITH A CHECKPOINT INHIBITOR” (Materia Therapeutics Inc., priority 2021, published 2025).
